{"source": "patent US20240246945A1", "about": "“NOVEL COMPOUND FOR CROP PROTECTANT” (LG CHEM, LTD., priority 2010, published 2024)", "data": [{"tested_on": "Myzus persicae (Sulzer)", "test": "Insecticidal Activity Test 1 against Myzus persicae (Sulzer), foliar spray on potted peppers, approximately 5 ppm", "assay_type": "in vivo", "conditions": "in Capsicum, 120 h, approximately 5 ppm drug solution in water, counted on day 5 after spraying, read-out: mortality rate rating", "excerpt": "Insecticidal Activity Test 1 Against Myzus persicae (Sulzer)\n(§1) Peppers were planted in plastic pots with a diameter of 8 cm and a height of 8 cm, Myzus persicae (Sulzer) was reproduced therein, and then the number of Myzus persicae (Sulzer) in each pot was investigated. Some of the compounds prepared in the examples were selected, the compound was dispersed in water to be diluted to approximately 5 ppm, thereby preparing a drug solution.\nThe drug solution was sprayed onto the foliage of the peppers planted in the pots using a hand sprayer and air-dried, and the pots were stored in a green house.\n(§2) On day 5 after the drug spraying, the number of Myzus persicae (Sulzer) parasitic on each pepper was counted, a mortality rate was calculated from the following formula, and the rating of each compound was investigated.\n(§3) [formula] • A rating: 90% to 100% mortality • B rating: 80% or more and less than 90% mortality • C rating: less than 80% mortality", "units": {"mortality at 5 µg/mL": "%"}, "values": [{"smiles": "CCN(C(=O)c1cnc(-c2noc(C)n2)n1C)c1cccnc1", "note": "[Ia-1-1-1, N-ethyl-1-methyl-2-(5-methyl-1,2,4-oxadiazol-3-yl)-N-(pyridin-3-yl)-1H-imidazole-5-carboxamide]", "mortality at 5 µg/mL": "90 to 100"}, {"smiles": "CCc1nc(-c2ncc(C(=O)N(CC)c3cccnc3)n2C)no1", "note": "[Ia-1-1-8, N-ethyl-2-(5-ethyl-1,2,4-oxadiazol-3-yl)-1-methyl-N-(pyridin-3-yl)-1H-imidazole-5-carboxamide]", "mortality at 5 µg/mL": "90 to 100"}, {"smiles": "CCN(C(=O)c1cnc(-c2noc(C3CC3)n2)n1C)c1cccnc1", "note": "[Ia-1-1-12, 2-(5-cyclopropyl-1,2,4-oxadiazol-3-yl)-N-ethyl-1-methyl-N-(pyridin-3-yl)-1H-imidazole-5-carboxamide]", "mortality at 5 µg/mL": "90 to 100"}, {"smiles": "CCN(C(=O)c1cnc(-c2noc(C3CCOCC3)n2)n1C)c1cccnc1", "note": "[Ia-1-1-25, N-ethyl-1-methyl-N-(pyridin-3-yl)-2-(5-(tetrahydro-2H-pyran-4-yl)-1,2,4-oxadiazol-3-yl)-1H-imidazole-5-carboxamide]", "mortality at 5 µg/mL": "90 to 100"}, {"smiles": "CCN(C(=O)c1cnc(-c2noc(N3CCCCC3)n2)n1C)c1cccnc1", "note": "[Ia-1-1-26, N-ethyl-1-methyl-2-(5-(piperidin-1-yl)-1,2,4-oxadiazol-3-yl)-N-(pyridin-3-yl)-1H-imidazole-5-carboxamide]", "mortality at 5 µg/mL": "90 to 100"}, {"smiles": "CCN(C(=O)c1cnc(-c2noc(N3CCCC3)n2)n1C)c1cccnc1", "note": "[Ia-1-1-27, N-ethyl-1-methyl-N-(pyridin-3-yl)-2-(5-(pyrrolidin-1-yl)-1,2,4-oxadiazol-3-yl)-1H-imidazole-5-carboxamide]", "mortality at 5 µg/mL": "90 to 100"}, {"smiles": "CCN(C(=O)c1cnc(-c2noc(N(C)C)n2)n1C)c1cccnc1", "note": "[Ia-1-1-36, 2-(5-(dimethylamino)-1,2,4-oxadiazol-3-yl)-N-ethyl-1-methyl-N-(pyridin-3-yl)-1H-imidazole-5-carboxamide]", "mortality at 5 µg/mL": "90 to 100"}]}, {"tested_on": "Myzus persicae (Sulzer)", "test": "Insecticidal Activity Test 2 against Myzus persicae (Sulzer), foliar spray on potted peppers, approximately 25 ppm", "assay_type": "in vivo", "conditions": "in Capsicum, 120 h, approximately 25 ppm drug solution in water, counted on day 5 after spraying, read-out: mortality rate rating", "excerpt": "Insecticidal Activity Test 2 Against Myzus persicae (Sulzer)\nas §1, with “25” for “5”\nThe drug solution was sprayed onto the foliage of the peppers planted in the pots and air-dried, and the pots were stored in a green house.\nas §2, §3", "units": {"mortality at 25 µg/mL": "%"}, "values": [{"smiles": "CCN(C(=O)c1cnc(-c2noc(C(F)F)n2)n1C)c1cccnc1", "note": "[Ia-1-1-2, 2-(5-(difluoromethyl)-1,2,4-oxadiazol-3-yl)-N-ethyl-1-methyl-N-(pyridin-3-yl)-1H-imidazole-5-carboxamide]", "mortality at 25 µg/mL": "90 to 100"}, {"smiles": "CCN(C(=O)c1cnc(-c2noc(C(C)(C)C)n2)n1C)c1cccnc1", "note": "[Ia-1-1-5, 2-(5-(tert-butyl)-1,2,4-oxadiazol-3-yl)-N-ethyl-1-methyl-N-(pyridin-3-yl)-1H-imidazole-5-carboxamide]", "mortality at 25 µg/mL": "90 to 100"}, {"smiles": "CCN(C(=O)c1cnc(-c2noc(C(C)C)n2)n1C)c1cccnc1", "note": "[Ia-1-1-6, N-ethyl-2-(5-isopropyl-1,2,4-oxadiazol-3-yl)-1-methyl-N-(pyridin-3-yl)-1H-imidazole-5-carboxamide]", "mortality at 25 µg/mL": "90 to 100"}, {"smiles": "CCCc1nc(-c2ncc(C(=O)N(CC)c3cccnc3)n2C)no1", "note": "[Ia-1-1-7, N-ethyl-1-methyl-2-(5-propyl-1,2,4-oxadiazol-3-yl)-N-(pyridin-3-yl)-1H-imidazole-5-carboxamide]", "mortality at 25 µg/mL": "90 to 100"}, {"smiles": "CCN(C(=O)c1cnc(-c2noc(CC3CC3)n2)n1C)c1cccnc1", "note": "[Ia-1-1-16, 2-(5-(cyclopropylmethyl)-1,2,4-oxadiazol-3-yl)-N-ethyl-1-methyl-N-(pyridin-3-yl)-1H-imidazole-5-carboxamide]", "mortality at 25 µg/mL": "90 to 100"}, {"smiles": "CCN(C(=O)c1cnc(-c2noc(-c3ccccc3)n2)n1C)c1cccnc1", "note": "[Ia-1-1-21, N-ethyl-1-methyl-2-(5-phenyl-1,2,4-oxadiazol-3-yl)-N-(pyridin-3-yl)-1H-imidazole-5-carboxamide]", "mortality at 25 µg/mL": "90 to 100"}, {"smiles": "CCN(C(=O)c1cnc(-c2noc(-c3cocn3)n2)n1C)c1cccnc1", "note": "[Ia-1-1-22, N-ethyl-1-methyl-2-(5-(oxazol-4-yl)-1,2,4-oxadiazol-3-yl)-N-(pyridin-3-yl)-1H-imidazole-5-carboxamide]", "mortality at 25 µg/mL": "90 to 100"}, {"smiles": "CCN(C(=O)c1cnc(-c2noc(-c3cnco3)n2)n1C)c1cccnc1", "note": "[Ia-1-1-23, N-ethyl-1-methyl-2-(5-(oxazol-5-yl)-1,2,4-oxadiazol-3-yl)-N-(pyridin-3-yl)-1H-imidazole-5-carboxamide]", "mortality at 25 µg/mL": "90 to 100"}, {"smiles": "CCN(C(=O)c1cnc(-c2noc(-c3ccccc3F)n2)n1C)c1cccnc1", "note": "[Ia-1-1-24, N-ethyl-1-methyl-2-(5-(2-fluorophenyl)-1,2,4-oxadiazol-3-yl)-N-(pyridin-3-yl)-1H-imidazole-5-carboxamide]", "mortality at 25 µg/mL": "90 to 100"}, {"smiles": "CCN(C(=O)c1cnc(-c2noc(-c3cccnc3)n2)n1C)c1cccnc1", "note": "[Ia-1-1-30, N-ethyl-1-methyl-N-(pyridin-3-yl)-2-(5-(pyridin-3-yl)-1,2,4-oxadiazol-3-yl)-1H-imidazole-5-carboxamide]", "mortality at 25 µg/mL": "90 to 100"}, {"smiles": "CCN(C(=O)c1cnc(-c2noc(-c3ccncc3)n2)n1C)c1cccnc1", "note": "[Ia-1-1-31, N-ethyl-1-methyl-N-(pyridin-3-yl)-2-(5-(pyridin-4-yl)-1,2,4-oxadiazol-3-yl)-1H-imidazole-5-carboxamide]", "mortality at 25 µg/mL": "90 to 100"}, {"smiles": "CCN(C(=O)c1cnc(-c2noc(NC(C)C)n2)n1C)c1cccnc1", "note": "[Ia-1-1-33, N-ethyl-2-(5-(isopropylamino)-1,2,4-oxadiazol-3-yl)-1-methyl-N-(pyridin-3-yl)-1H-imidazole-5-carboxamide]", "mortality at 25 µg/mL": "90 to 100"}, {"smiles": "CCNc1nc(-c2ncc(C(=O)N(CC)c3cccnc3)n2C)no1", "note": "[Ia-1-1-35, N-ethyl-2-(5-(ethylamino)-1,2,4-oxadiazol-3-yl)-1-methyl-N-(pyridin-3-yl)-1H-imidazole-5-carboxamide]", "mortality at 25 µg/mL": "90 to 100"}, {"smiles": "CCN(C(=O)c1cnc(-c2noc(N3CCOCC3)n2)n1C)c1cccnc1", "note": "[Ia-1-1-37, N-ethyl-1-methyl-2-(5-morpholino-1,2,4-oxadiazol-3-yl)-N-(pyridin-3-yl)-1H-imidazole-5-carboxamide]", "mortality at 25 µg/mL": "90 to 100"}, {"smiles": "CCN(C(=O)c1cnc(-c2noc(N(C(C)=O)C(C)C)n2)n1C)c1cccnc1", "note": "[Ia-1-1-38, N-ethyl-2-(5-(N-isopropylacetamido)-1,2,4-oxadiazol-3-yl)-1-methyl-N-(pyridin-3-yl)-1H-imidazole-5-carboxamide]", "mortality at 25 µg/mL": "90 to 100"}, {"smiles": "CCN(C(=O)c1cnc(C2=NOC(C)(C)N2C(=O)C2CC2)n1C)c1cccnc1", "note": "[Ia-1-4-3, 2-(4-(cyclopropanecarbonyl)-5,5-dimethyl-4,5-dihydro-1,2,4-oxadiazol-3-yl)-N-ethyl-1-methyl-N-(pyridin-3-yl)-1H-imidazole-5-carboxamide]", "mortality at 25 µg/mL": "90 to 100"}, {"smiles": "CCN(C(=O)c1cnc(C2=NOC(CC)(CC)N2)n1C)c1cccnc1", "note": "[Ia-1-4-4, 2-(5,5-diethyl-4,5-dihydro-1,2,4-oxadiazol-3-yl)-N-ethyl-1-methyl-N-(pyridin-3-yl)-1H-imidazole-5-carboxamide]", "mortality at 25 µg/mL": "90 to 100"}, {"smiles": "CCN(C(=O)c1cnc(C2=NOC3(CCOCC3)N2)n1C)c1cccnc1", "note": "[Ia-1-4-10, N-ethyl-1-methyl-N-(pyridin-3-yl)-2-(1,8-dioxa-2,4-diazaspiro[4.5]dec-2-en-3-yl)-1H-imidazole-5-carboxamide]", "mortality at 25 µg/mL": "90 to 100"}, {"smiles": "CCN(C(=O)c1cnc(C2=NOC3(CCOCC3)N2C(=O)C2CC2)n1C)c1cccnc1", "note": "[Ia-1-4-12, 2-(4-(cyclopropanecarbonyl)-1,8-dioxa-2,4-diazaspiro[4.5]dec-2-en-3-yl)-N-ethyl-1-methyl-N-(pyridin-3-yl)-1H-imidazole-5-carboxamide]", "mortality at 25 µg/mL": "90 to 100"}, {"smiles": "CCN(C(=O)c1cnc(C2=NOC3(CCC(C(F)(F)F)CC3)N2C)n1C)c1cccnc1", "note": "(centres unmarked) [Ia-1-4-25, N-ethyl-1-methyl-2-(4-methyl-8-(trifluoromethyl)-1-oxa-2,4-diazaspiro[4.5]dec-2-en-3-yl)-N-(pyridin-3-yl)-1H-imidazole-5-carboxamide]", "mortality at 25 µg/mL": "90 to 100"}, {"smiles": "CCN(C(=O)c1cnc(C2=NOC(c3ccccc3F)N2)n1C)c1cccnc1", "note": "(centres unmarked) [Ia-1-4-33, N-ethyl-2-(5-(2-fluorophenyl)-4,5-dihydro-1,2,4-oxadiazol-3-yl)-1-methyl-N-(pyridin-3-yl)-1H-imidazole-5-carboxamide]", "mortality at 25 µg/mL": "90 to 100"}, {"smiles": "CCN(C(=O)c1cnc(C2=NOC(c3cccnc3F)N2)n1C)c1cccnc1", "note": "(centres unmarked) [Ia-1-4-34, N-ethyl-2-(5-(2-fluoropyridin-3-yl)-4,5-dihydro-1,2,4-oxadiazol-3-yl)-1-methyl-N-(pyridin-3-yl)-1H-imidazole-5-carboxamide]", "mortality at 25 µg/mL": "90 to 100"}, {"smiles": "CCN(C(=O)c1cnc(C2=NC(C)(C)ON2C)n1C)c1cccnc1", "note": "[Ia-1-5-1, N-ethyl-1-methyl-N-(pyridin-3-yl)-2-(2,5,5-trimethyl-2,5-dihydro-1,2,4-oxadiazol-3-yl)-1H-imidazole-5-carboxamide]", "mortality at 25 µg/mL": "90 to 100"}, {"smiles": "CCN(C(=O)c1cnc(C2=NC3(CCN(C(=O)OC(C)(C)C)CC3)ON2C)n1C)c1cccnc1", "note": "[Ia-1-5-3, tert-butyl 3-(5-(ethyl(pyridin-3-yl)carbamoyl)-1-methyl-1H-imidazole-2-yl)-2-methyl-1-oxa-2,4,8-triazaspiro[4.5]dec-3-en-8-carboxylate]", "mortality at 25 µg/mL": "90 to 100"}, {"smiles": "CCN(C(=O)c1cnc(C2=NC(c3cccnc3F)ON2C)n1C)c1cccnc1", "note": "(centres unmarked) [Ia-1-5-9, N-ethyl-2-(5-(2-fluoropyridin-3-yl)-2-methyl-2,5-dihydro-1,2,4-oxadiazol-3-yl)-1-methyl-N-(pyridin-3-yl)-1H-imidazole-5-carboxamide]", "mortality at 25 µg/mL": "90 to 100"}]}]}
